Data published in patent US20150361087A1, “ANTIVIRAL COMPOUNDS” (Gilead Sciences, Inc., priority 2014, published 2015).
Like-named read-outs stand apart in the source and are kept apart here.

How the values were obtained:
[1] = tested on: Y93H in genotype 1a NS5A (1a Pi-Rluc replicon); assay: Replicon assay against resistance mutant 1a Y93H; format: cell-based, HCV
Experimental: (§1) Evaluation of cell-based anti-HCV activity: Antiviral potency (EC50) was determined using a Renilla luciferase (RLuc)-based HCV replicon reporter assay. To perform the assay for genotype 1 and 2a JFH-1, stable HCV 1a RLuc replicon cells (harboring a dicistronic genotype 1a H77 replicon that encodes a RLuc reporter), stable HCV 1b RLuc replicon cells (harboring a dicistronic genotype 1b Conl replicon that encodes a RLuc reporter), or stable HCV 2a JFH-1 Rluc replicon cells (harboring a dicistronic genotype 2a JFH-1 replicon that encodes a RLuc reporter; with L31 present in NS5A) were dispensed into 384-well plates for EC50 assays. To perform the assay for genotype 2a (with M31 present in NS5A) or 2b, NS5A chimeric genotype 2a JFH-1 replicons that encodes a RLuc-Neo reporter and either genotype 2a J6 strain NS5A gene or genotype 2b MD2b-1 strain NS5A gene (both with M31 present) respectively, were either transiently transfected (t) into Huh-Lunet cells or were established as stably replicating replicon cells (s) is provided. Either cells were dispensed into 384-well plates for EC50 assays. To perform the assay for genotype 3 and 4, NS5A chimeric genotype 1b Conl replicons that encodes a Pi-RLuc reporter and either genotype 3a S52 strain NS5A gene or genotype 4a ED43 strain NS5A gene respectively, were transiently transfected (t) into Huh-Lunet cells, which were subsequently dispensed into 384-well plates. […] 72 hours later, cells were lysed and Renilla luciferase activity quantified as recommended by the manufacturer (Promega-Madison, Wis.). […]
(§2) To determine the antiviral potency (EC50) against resistance mutants, resistance mutations, including Q30R, Q30E, Y93H, and Y93N in genotype 1a NS5A, and L31V/Y93H in genotype 1b NS5A were introduced individually into either 1a Pi-Rluc or 1b Pi-Rluc replicons by site directed mutagenesis. Replicon RNA of each resistant mutant was transiently transfected into Huh-7-derived cured-51 cells and antiviral potency was determined on these transfected cells as described above.

[2] = tested on: HCV 2a JFH-1 Rluc replicon cells (L31 present in NS5A); assay: Renilla luciferase HCV replicon reporter assay, genotype 2a JFH-1; format: cell-based; conditions: stable replicon cells, 72 hours
Experimental: (§3) Evaluation of cell-based anti-HCV activity: Antiviral potency (EC50) was determined using a Renilla luciferase (RLuc)-based HCV replicon reporter assay. To perform the assay for genotype 1 and 2a JFH-1, stable HCV 1a RLuc replicon cells (harboring a dicistronic genotype 1a H77 replicon that encodes a RLuc reporter), stable HCV 1b RLuc replicon cells (harboring a dicistronic genotype 1b Conl replicon that encodes a RLuc reporter), or stable HCV 2a JFH-1 Rluc replicon cells (harboring a dicistronic genotype 2a JFH-1 replicon that encodes a RLuc reporter; with L31 present in NS5A) were dispensed into 384-well plates for EC50 assays. To perform the assay for genotype 2a (with M31 present in NS5A) or 2b, NS5A chimeric genotype 2a JFH-1 replicons that encodes a RLuc-Neo reporter and either genotype 2a J6 strain NS5A gene or genotype 2b MD2b-1 strain NS5A gene (both with M31 present) respectively, were either transiently transfected (t) into Huh-Lunet cells or were established as stably replicating replicon cells (s) is provided. Either cells were dispensed into 384-well plates for EC50 assays. To perform the assay for genotype 3 and 4, NS5A chimeric genotype 1b Conl replicons that encodes a Pi-RLuc reporter and either genotype 3a S52 strain NS5A gene or genotype 4a ED43 strain NS5A gene respectively, were transiently transfected (t) into Huh-Lunet cells, which were subsequently dispensed into 384-well plates. Compounds were dissolved in DMSO at a concentration of 10 mM and diluted in DMSO either manually or using an automated pipeting instrument. Serially 3-fold diluted compounds were either manually mixed with cell culture media and added to the seeded cells or directly added to the cells using an automated instrument. DMSO was used as a negative (solvent; no inhibition) control, and the protease inhibitor ITMN-191 was included at a concentration >100×EC50 as a positive control. 72 hours later, cells were lysed and Renilla luciferase activity quantified as recommended by the manufacturer (Promega-Madison, Wis.). Non-linear regression was performed to calculate EC50 values.

[3] = target: NS5A chimeric genotype 2a JFH-1 replicon with genotype 2b MD2b-1 strain NS5A gene (M31); assay: Renilla luciferase HCV replicon reporter assay, genotype 2b; format: cell-based
Experimental: as §3

3a Y93H = assay: Replicon assay against resistance mutant 3a Y93H; format: cell-based, HCV
[4] = tested on: Q30E in genotype 1a NS5A (1a Pi-Rluc replicon); assay: Replicon assay against resistance mutant 1a Q30E; format: cell-based, HCV; conditions: transiently transfected Huh-7-derived cured-51 cells
Experimental: (§4) Evaluation of cell-based anti-HCV activity: Antiviral potency (EC50) was determined using a Renilla luciferase (RLuc)-based HCV replicon reporter assay. To perform the assay for genotype 1 and 2a JFH-1, stable HCV 1a RLuc replicon cells (harboring a dicistronic genotype 1a H77 replicon that encodes a RLuc reporter), stable HCV 1b RLuc replicon cells (harboring a dicistronic genotype 1b Conl replicon that encodes a RLuc reporter), or stable HCV 2a JFH-1 Rluc replicon cells (harboring a dicistronic genotype 2a JFH-1 replicon that encodes a RLuc reporter; with L31 present in NS5A) were dispensed into 384-well plates for EC50 assays. […] 72 hours later, cells were lysed and Renilla luciferase activity quantified as recommended by the manufacturer (Promega-Madison, Wis.). […]
as §2

[5] = target: NS5A chimeric genotype 1b Conl replicon with genotype 3a S52 strain NS5A gene; assay: Renilla luciferase HCV replicon reporter assay, genotype 3a; format: cell-based
Experimental: as §3

[6] = tested on: HCV 1a RLuc replicon cells (genotype 1a H77 replicon); assay: Renilla luciferase HCV replicon reporter assay, genotype 1a; format: cell-based; conditions: stable replicon cells, 72 hours, RLuc readout
Experimental: as §3

[7] = tested on: Y93N in genotype 1a NS5A (1a Pi-Rluc replicon); assay: Replicon assay against resistance mutant 1a Y93N; format: cell-based, HCV
Experimental: as §1, §2

[8] = tested on: HCV 1b RLuc replicon cells (genotype 1b Conl replicon); assay: Renilla luciferase HCV replicon reporter assay, genotype 1b; format: cell-based; conditions: stable replicon cells, 72 hours, RLuc readout
Experimental: as §3

[9] = target: NS5A chimeric genotype 2a JFH-1 replicon with genotype 2a J6 strain NS5A gene (M31); assay: Renilla luciferase HCV replicon reporter assay, genotype 2a J6; format: cell-based; conditions: transiently transfected (t) into Huh-Lunet cells, 72 hours
Experimental: as §1, with “assays.” for “assays. To perform the assay for genotype 3 and 4, NS5A chimeric genotype 1b Conl replicons that encodes a Pi-RLuc reporter and either genotype 3a S52 strain NS5A gene or genotype 4a ED43 strain NS5A gene respectively, were transiently transfected (t) into Huh-Lunet cells, which were subsequently dispensed into 384-well plates.”

[10] = design: species or system Sprague-Dawley (SD) rats; conditions: in vivo
Experimental: IV and PO Single Dose Pharmacokinetic Studies in SD Rats: The pharmacokinetics of selected compounds was characterized in male Sprague-Dawley (SD) rats (250-300 g). In this study, two groups of naïve purebred SD rats (N=3 per group, fasted over night) received the selected compound either as an intravenous (IV) infusion (1 mg/kg over 30 minutes) via the jugular vein or by oral gavage (2 mg/kg). The intravenous (IV) dosing vehicle was 5% ethanol, 35% polyethylene glycol 400 (PEG 400) and 60% water pH 2.0. The oral dosing vehicle was 5% ethanol, 55% PEG 400 and 40% citrate buffer pH 2.2.
Serial blood samples (approximately 0.3 mL each) were collected from jugular vein or other suitable vein at specified time points. […]
A bioanalytical method utilizing high performance liquid chromatography coupled to tandem mass spectrometry (LC/MS/MS) was developed for analysis of the selected compound in rat plasma. Detection was performed using selected reaction monitoring (SRM); Ions representing the precursor (M+H) ^+ species was selected in quadrupole 1 (Q1) and collided with argon gas in the collision cell (Q2) to generate specific product ion, which was subsequently monitored by quadrupole 3 (Q3). Standard curve and quality control samples were prepared in male rat plasma and processed in the same way as the test samples to generate quantitative data. […]

[11] = tested on: L31V/Y93H in genotype 1b NS5A (1b Pi-Rluc replicon); assay: Replicon assay against resistance mutant 1b L31V/Y93H; format: cell-based, HCV; conditions: transiently transfected Huh-7-derived cured-51 cells
Experimental: as §4, §2

[12] = tested on: NS5A chimeric genotype 1b Conl replicon with genotype 4a ED43 strain NS5A gene; assay: Renilla luciferase HCV replicon reporter assay, genotype 4a; format: cell-based; conditions: Hepatitis C virus, 72 h, read-out: 4a (s) (nM)
Experimental: as §1, with “assays.” for “assays. To perform the assay for genotype 3 and 4, NS5A chimeric genotype 1b Conl replicons that encodes a Pi-RLuc reporter and either genotype 3a S52 strain NS5A gene or genotype 4a ED43 strain NS5A gene respectively, were transiently transfected (t) into Huh-Lunet cells, which were subsequently dispensed into 384-well plates.”

[13] = Hepatitis C virus, read-out: 1a Y93H (nM)
[14] = Hepatitis C virus, 72 h, read-out: 2b (s) (nM)
[15] = Hepatitis C virus, read-out: 3a Y93H (nM)
[16] = Hepatitis C virus, 72 h, read-out: 3a (nM)
[17] = Hepatitis C virus, read-out: 1a Y93N (nM)

COC(=O)N[C@H](C(=O)N1[C@@H](C)CC[C@H]1c1ncc(-c2cc3c4c(c2)OCc2cc(-c5cnc([C@@H]6CC[C@H](C)N6C(=O)[C@@H](NC(=O)OC)C6C[C@@H](C)O[C@H](C)C6)[nH]5)cc(c2-4)OC3)[nH]1)C1C[C@@H](C)O[C@H](C)C1 (stereo partly drawn) [Compound 14, dimethyl (R,R,1S,1′S)-2,2′-((2S,2′S,5S,5′S)-5,5′-(5,5′-(5,10-dihydrochromeno[5,4,3-cde]chromene-2,7-diyl)bis(1H-imidazole-5,2-diyl))bis(2-methylpyrrolidine-5,1-diyl))bis(1-((2R,6R)-2,6-dimethyltetrahydro-2H-pyran-4-yl)-2-oxoethane-2,1-diyl)dicarbamate]
EC50 ([1]; transiently transfected Huh-7-derived cured-51 cells, read-out: 1a Y93H): 0.063 nM | EC50 [2]: 11 pM | EC50 ([3]; transiently transfected (t) into Huh-Lunet cells, 72 hours, read-out: 2b (t)): 0.038 nM | EC50 (3a Y93H; resistance mutant replicon, read-out: 3a Y93H): 0.157 nM | EC50 [4]: 110 pM | EC50 ([5]; transiently transfected into Huh-Lunet cells, 72 hours, read-out: 3a): 0.04 nM | EC50 [6]: 49 pM | EC50 ([7]; transiently transfected Huh-7-derived cured-51 cells, read-out: 1a Y93N): 0.229 nM | EC50 [8]: 54 pM | EC50 [9]: 14 pM | Rat % F [10]: 15% | EC50 [11]: 75 pM

COC(=O)N[C@H](C(=O)N1CCC[C@H]1c1ncc(-c2cc3c4c(c2)OCc2cc(-c5cnc([C@@H]6CCCN6C(=O)[C@@H](NC(=O)OC)C6C[C@@H](C)O[C@H](C)C6)[nH]5)cc(c2-4)OC3)[nH]1)C1C[C@@H](C)O[C@H](C)C1 (stereo partly drawn) [Compound 15, dimethyl ((1S,1′S)-((2S,2′S)-((5,10-dihydrochromeno [5,4,3-cde]chromene-2,7-diyl)bis(1H-imidazole-5,2-diyl))bis(pyrrolidine-2,1-diyl))bis(1-((2R,6R)-2,6-dimethyltetrahydro-2H-pyran-4-yl)-2-oxoethane-2,1-diyl))dicarbamate]
EC50 [1, 13]: 0.237 nM | EC50 ([2]; Hepatitis C virus): 24 pM | EC50 [3, 14]: 0.143 nM | EC50 (3a Y93H; [15]): 0.361 nM | EC50 [5, 16]: 0.199 nM | EC50 ([6]; Hepatitis C virus): 180 pM | EC50 [7, 17]: 0.87 nM | EC50 ([8]; Hepatitis C virus): 195 pM | EC50 [12]: 0.07 nM

COC(=O)N[C@H](C(=O)N1[C@@H](C)CC[C@H]1c1ncc(-c2cc3c4c(c2)OCc2cc(-c5cnc([C@@H]6CC[C@H](C)N6C(=O)[C@@H](NC(=O)OC)[C@H]6C[C@@H](C)O[C@@H](C)C6)[nH]5)cc(c2-4)OC3)[nH]1)C1C[C@@H](C)O[C@@H](C)C1 (stereo partly drawn) [Compound 16, dimethyl (r,S,R,1S,1′S)-2,2′-((2S,2′S,5S,5′S)-5,5′-(5,5′-(5,10-dihydrochromeno[5,4,3-cde]chromene-2,7-diyl)bis(1H-imidazole-5,2-diyl))bis(2-methylpyrrolidine-5,1-diyl))bis(1-((2R,4r,6S)-2,6-dimethyltetrahydro-2H-pyran-4-yl)-2-oxoethane-2,1-diyl)dicarbamate]
EC50 [1, 13]: 0.356 nM | EC50 ([2]; Hepatitis C virus): 13 pM | EC50 [3, 14]: 0.054 nM | EC50 (3a Y93H; [15]): 0.145 nM | EC50 [5, 16]: 0.051 nM | EC50 ([6]; Hepatitis C virus): 43 pM | EC50 [7, 17]: 0.685 nM | EC50 ([8]; Hepatitis C virus): 37 pM | EC50 [12]: 0.025 nM
